Assay results reported in publication PMC9313321 (Biomedicines, 2022).

Key:
Aβ42 self-aggregation = molecular target: T1, Aβ42 self-aggregation (Homo sapiens, UniProt P05067); test: biochemical; assay type: biochemical; conditions: read-out: Aβ42 Self-Aggreg. Inhib
T1 construct: Beta-amyloid protein, fragment 1-42; purchased GeneCust
Procedure: (§1) The inhibition of Aβ42 aggregation and Cu(II)-induced Aβ42 aggregation, carried out by the RIV–BIM hybrids, was studied using a reported method based on the fluorescence emission of thioflavin T [52, 53].
(§2) Solutions of phosphate buffer 0.215 M at pH = 8.00, Na2CO3 300 μM in distilled water, NaOH 250 mM in distilled water, glycine-NaOH 50 mM buffer at pH = 8.50 and CuCl2 240 μM in phosphate buffer were prepared. Stock solutions of […] of the RIV–BIM compounds were prepared in MeOH (with 20% DMSO). Working solutions of 240 μM of the RIV–BIM hybrids were prepared by the proper dilution of their stock solutions with phosphate buffer. A working solution of glycine-NaOH 50 mM buffer at pH = 8.50 containing 5 μM of thioflavin T (ThT) was prepared daily. Aβ42 (GeneCust) was pre-treated with 1,1,1,3,3,3-hexafluoro-2-propanol (HFIP) to obtain a solution of 0.149 mM by brief sonication and vortexing, which was kept covered overnight at room temperature. From the Aβ42 solution, aliquots of 250 μL were placed into Eppendorf tubes under ice and set to evaporate inside a hood at room temperature overnight. When the contents of the Eppendorf tubes were dried, the Aβ42 aliquots were stored at −20 °C until needed. To obtain the Aβ42 working solution, the Aβ42 aliquots were dissolved with a freshly prepared mixture of 69.5 μL of CH3CN/Na2CO3 (300 μM)/NaOH (250 mM) (48.3/48.3/3.4, v/v/v) by brief sonication and vortexing to obtain an Aβ42 solution of 531.24 μM. To this solution, 392.5 μL of phosphate buffer was added, achieving an Aβ42 working solution of 80 μM. To prepare the incubations, three replicates of Aβ42 alone (30 μL Aβ42 80 μM + 30 μL phosphate buffer), Aβ42 with RIV–BIM (30 μL Aβ42 80 μM + 10 μL RIV–BIM 240 μM + 20 μL phosphate buffer), Aβ42 with copper (30 μL Aβ42 80 μM + 10 μL CuCl2 240 μM + 20 μL phosphate buffer) and Aβ42 with copper and RIV–BIM (30 μL Aβ42 80 μM + 10 μL CuCl2 240 μM + 10 μL RIV–BIM 240 μM + 10 μL phosphate buffer) were placed in Eppendorfs. To obtain the blank solutions, a similar number of Eppendorfs, replacing Aβ42 with phosphate buffer, were prepared. Incubations were performed in a water bath at 37 °C with agitation for 24 h. Afterwards, 180 μL of glycine-NaOH 50 mM buffer at pH = 8.50 containing 5 μM of ThT was added to each Eppendorf and then they were vortexed. Finally, 200 μL of solution from each Eppendorf was placed in the wells of a microplate and fluorescence measurements were monitored using a Spectramax Gemini EM (Molecular Devices) fluorimeter with an excitation wavelength of 446 nm and an emission wavelength of 485 nm. Blank signals were subtracted from the corresponding samples. The fluorescence intensity of the Aβ42 + RIV–BIM solution was compared to that of the Aβ42 solution to obtain the inhibition of Aβ42 self-aggregation for each compound. The fluorescence intensity of the Aβ42 + Cu(II) + RIV–BIM solution was compared to that of the Aβ42 + Cu(II) solution to obtain the inhibition of the Cu(II)-induced Aβ42 aggregation for each hybrid.
(§3) The anti-amyloidogenic capacity of the compounds was assessed in vitro using the thioflavin T (ThT) method. To record fluorescence emission, excitation (446 nm) and emission (485 nm) wavelengths were used. When ThT binds to amyloid fibrils, an increase in absorbance and emission of this dye occurs with concomitant red shifts of the respective spectra. The percent of inhibition of Aβ42 aggregation is shown in Table 1, and the assays were performed in the presence of 20 μM of inhibitor. These concentration conditions were used to overcome solubility problems of some compounds in the aqueous phosphate buffer working medium. […]. […]

Aβ = test system: Aβ; design: method as in PMID 32781220; conditions: 50 μM concentration; cited from earlier work
[1] = molecular target: T2, Cu(II)-induced Aβ42 aggregation (Homo sapiens, UniProt P05067); test: Inhibition of Cu(II)-induced Aβ42 aggregation (thioflavin T fluorescence); assay type: biochemical; conditions: read-out: Aβ42 Cu-Ind. Aggreg. Inhib
T2 construct: Beta-amyloid protein, fragment 1-42; purchased GeneCust
T2 sequence (P05067 672-713 limits assumed): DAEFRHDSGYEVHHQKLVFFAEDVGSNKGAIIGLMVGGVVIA
Procedure: as §1, §2, §3

[2] = Radical scavenging activity (DPPH method); conditions: read-out: Antioxid. EC50, 30 min, absorbance 517 nm
Procedure: To determine the radical scavenging activity (antioxidant activity) of the novel RIV–BIM hybrids, the DPPH method was performed as previously described in the literature [49]. Working solutions of 20 mg of the ligands were prepared daily in 10 mL of MeOH (with a 10% of DMSO). A working solution of 2 mg DPPH in 100 mL MeOH was prepared daily, and its absorbance was checked to be between 0.75 and 1.00 (a.u.). […] Each one of the calibrate points was kept for 30 min under darkness to allow the ligands to exert their antioxidant effects. After 30 min, an auto-zero was performed with MeOH in both sample and reference cells, using a UV–Vis spectrophotometer. […] The antioxidant activity (%AA) for each point was calculated using the following equation: %AA=ADPPH−Aligand/ADPPH×100
The radical scavenging activity of the RIV–BIM compounds was determined by a spectrophotometric method involving the 2,2-diphenyl-1-picrylhydrazyl (DPPH) free radical [35, 64].

T1 sequence (P05067 672-713 limits assumed): as above

| Structure (SMILES) | inhibition at 20 µM (Aβ42 self-aggregation) | Aβ inhibition (Aβ) | inhibition at 20 µM [1] | EC50 [2] |
| --- | --- | --- | --- | --- |
| COc1cc(/C=C/C(=O)CC(=O)/C=C/c2ccc(O)c(OC)c2)ccc1O [Curcumin, reference compound] | 65.7% | 62% | 62.7% |  |
| Cc1c(O)c(=O)ccn1C [DMHP, reference compound] |  |  |  | 157 ± 8 µM |
| Nc1c2c(nc3ccccc13)CCCC2 [Tacrine, reference compound] | 28.1% |  |  |  |
